According to patent publication US10294236B2, “Compounds as rearranged during transfection (RET) inhibitors” (GLAXOSMITHKLINE INTELLECTUAL PROPERTY DEVELOPMENT LIMITED, priority 2014, dated 2019):
Counter-ions that a name gives are not always drawn.

Molecular target: T1, Human RET kinase cytoplasmic domain (Homo sapiens, UniProt P07949)
T1 construct: made in house
T1 sequence (P07949 658-1114): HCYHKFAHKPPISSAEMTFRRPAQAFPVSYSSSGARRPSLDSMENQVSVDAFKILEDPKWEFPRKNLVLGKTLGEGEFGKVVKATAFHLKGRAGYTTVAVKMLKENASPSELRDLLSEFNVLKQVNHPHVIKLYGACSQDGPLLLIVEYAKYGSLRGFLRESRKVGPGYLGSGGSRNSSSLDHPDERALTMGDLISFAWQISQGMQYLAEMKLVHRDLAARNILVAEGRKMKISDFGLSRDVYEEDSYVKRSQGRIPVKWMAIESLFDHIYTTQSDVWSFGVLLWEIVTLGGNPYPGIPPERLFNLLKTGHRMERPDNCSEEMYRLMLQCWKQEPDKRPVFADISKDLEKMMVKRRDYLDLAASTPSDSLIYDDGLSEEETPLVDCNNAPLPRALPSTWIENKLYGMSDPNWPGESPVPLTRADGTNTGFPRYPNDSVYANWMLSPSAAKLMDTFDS
Experiment: RET kinase enzymatic assay
Assay type: biochemical
Details: not given
Method in brief: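 GST-RET, 0.2 nM in 2× enzyme mix (HEPES, CHAPS, BSA, DTT), preincubated with inhibitor 30 min at 23 °C. Reaction for 1 h at 23 °C after adding 2× substrate mix: 20 μM ATP, 20 mM MgCl2, 1 μM biotinylated peptide. Single wells per concentration; IC50 from sigmoidal dose-response fit.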
For CCOc1cc(-c2ncc(NC(=O)Nc3ccc(CC(C)(C)N)c(C(F)(F)F)c3)c(C)n2)c[nH]c1=O [Example 185, 1-(4-(2-Amino-2-methylpropyl)-3-(trifluoromethyl)phenyl)-3-(2-(5-ethoxy-6-oxo-1,6-dihydropyridin-3-yl)-4-methylpyrimidin-5-yl)urea], the IC50 was less than 0.1 µM.
With CCOc1cc(=O)[nH]cc1-c1ccc(NC(=O)Nc2ccc(OC3(C)COC3)c(C(F)(F)F)c2)c(F)c1 [Example 18, 1-(4-(4-Ethoxy-6-oxo-1,6-dihydropyridin-3-yl)-2-fluorophenyl)-3-(4-((3-methyloxetan-3-yl)oxy)-3-(trifluoromethyl)phenyl)urea] the IC50 was less than 0.1 µM.
Work on CCOc1cc(-c2ccc(NC(=O)Nc3ccc(OC4(C)CN(C)C4)c(C(F)(F)F)c3)c(F)c2)c[nH]c1=O [Example 117] yielded an IC50 of less than 0.1 µM.
For CCOc1cc(-c2ncc(NC(=O)Nc3cc(C(F)(F)F)c(CN(C)C)cc3F)cn2)c[nH]c1=O [Example 188, 1-(4-((Dimethylamino)methyl)-2-fluoro-5-(trifluoromethyl)phenyl)-3-(2-(5-ethoxy-6-oxo-1,6-dihydropyridin-3-yl)pyrimidin-5-yl)urea dihydrochloride], the IC50 was less than 0.1 µM.
Compound CC1(Oc2ccc(NC(=O)Nc3ccc(-c4c[nH]c(=O)c(F)c4)cc3F)cc2C(F)(F)F)COC1 [Example 36, 1-(2-Fluoro-4-(5-fluoro-6-oxo-1,6-dihydropyridin-3-yl)phenyl)-3-(4-((3-methyloxetan-3-yl)oxy)-3-(trifluoromethyl)phenyl)urea] has an IC50 of less than 0.1 µM.
In the case of CCOc1cc(-c2ccc(NC(=O)Nc3cc(-n4cnc(C)c4)cc(C(F)(F)F)c3)c(F)c2)c[nH]c1=O [Example 2, 1-(4-(5-Ethoxy-6-oxo-1,6-dihydropyridin-3-yl)-2-fluorophenyl)-3-(3-(4-methyl-1H-imidazol-1-yl)-5-(trifluoromethyl)phenyl)urea], the IC50 is reported as less than 0.1 µM.
CCN1CCN(Cc2cc(F)c(NC(=O)Nc3cnc(-c4c[nH]c(=O)cc4OCCOC)nc3C)cc2C(F)(F)F)CC1 [Example 182, 1-(4-((4-Ethylpiperazin-1-yl)methyl)-2-fluoro-5-(trifluoromethyl)phenyl)-3-(2-(4-(2-methoxyethoxy)-6-oxo-1,6-dihydropyridin-3-yl)-4-methylpyrimidin-5-yl)urea] showed an IC50 of less than 0.1 µM.
Work on CCOc1cc(-c2ncc(NC(=O)Nc3ccc(C(C)(C)CN)c(C(F)(F)F)c3)c(C)n2)c[nH]c1=O [Example 70, 1-(4-(1-Amino-2-methylpropan-2-yl)-3-(trifluoromethyl)phenyl)-3-(2-(5-ethoxy-6-oxo-1,6-dihydropyridin-3-yl)-4-methylpyrimidin-5-yl)urea dihydrochloride] yielded an IC50 of less than 0.1 µM.
For CCOc1cc(-c2ccc(NC(=O)Nc3ccc(OC4(C)CCC4)c(C(F)(F)F)c3)c(F)c2)c[nH]c1=O [Example 149], the IC50 was less than 0.1 µM.
In the case of CCOc1cc(=O)[nH]cc1-c1ncc(NC(=O)Nc2cc(C(F)(F)F)c(CN3CCN(CC)CC3)cc2F)c(C)n1 [Example 191, 1-(2-(4-Ethoxy-6-oxo-1,6-dihydropyridin-3-yl)-4-methylpyrimidin-5-yl)-3-(4-((4-ethylpiperazin-1-yl)methyl)-2-fluoro-5-(trifluoromethyl)phenyl)urea trihydrochloride], the IC50 is reported as less than 0.1 µM.
CCOc1cc(-c2ncc(NC(=O)Nc3ccc(CN4CCC4)c(C(F)(F)F)c3)c(C)n2)c[nH]c1=O [Example 109] gave an IC50 of less than 0.1 µM.
Compound CCOc1cc(Oc2ccc(NC(=O)Nc3cc(C(F)(F)F)ccc3F)cc2)c[nH]c1=O [Example 86] has an IC50 of less than 0.1 µM.
Compound CCOc1cc(=O)[nH]cc1-c1ncc(NC(=O)Nc2ccc(Cl)c(C(F)(F)F)c2)c(C)n1 [Example 54, 1-(4-Chloro-3-(trifluoromethyl)phenyl)-3-(2-(4-ethoxy-6-oxo-1,6-dihydropyridin-3-yl)-4-methylpyrimidin-5-yl)urea] has an IC50 of less than 0.1 µM.
For CCOc1cc(-c2ccc(NC(=O)Nc3ccc(OC4(C)CS(=O)(=O)C4)c(C(F)(F)F)c3)c(F)c2)c[nH]c1=O [Example 150], the IC50 was less than 0.1 µM.
With CCOc1cc(-c2ccc(NC(=O)Nc3ccc(C4(CO)CC4)c(C(F)(F)F)c3)c(F)c2)c[nH]c1=O [Example 77] the IC50 was less than 0.1 µM.
With CCOc1cc(-c2ncc(NC(=O)Nc3cc(OCCN(C)C)cc(C(F)(F)F)c3)c(C)n2)c[nH]c1=O [Example 74, 1-(3-(2-(Dimethylamino)ethoxy)-5-(trifluoromethyl)phenyl)-3-(2-(5-ethoxy-6-oxo-1,6-dihydropyridin-3-yl)-4-methylpyrimidin-5-yl)urea dihydrochloride] the IC50 was less than 0.1 µM.
In the case of CC(C)Oc1cc(-c2ccc(NC(=O)Nc3ccc(OC4(C)COC4)c(C(F)(F)F)c3)c(F)c2)c[nH]c1=O [Example 136], the IC50 is reported as less than 0.1 µM.
With CCOc1cc(-c2ccc(NC(=O)Nc3ccc(OC4(C)COC4)c(C(F)(F)F)c3F)c(F)c2)c[nH]c1=O [Example 166] the IC50 was less than 0.1 µM.
With CCOc1cc(-c2nc(C)c(NC(=O)Nc3ccc(CN(C)C)c(C(F)(F)F)c3)c(C)n2)c[nH]c1=O [Example 59, 1-(4-((Dimethylamino)methyl)-3-(trifluoromethyl)phenyl)-3-(2-(5-ethoxy-6-oxo-1,6-dihydropyridin-3-yl)-4,6-dimethylpyrimidin-5-yl)urea] the IC50 was less than 0.1 µM.
In the case of CCOc1cc(=O)[nH]cc1-c1ncc(NC(=O)Nc2cc(-c3nnc(C)o3)cc(C(F)(F)F)c2)c(C)n1 [Example 67, 1-(2-(4-Ethoxy-6-oxo-1,6-dihydropyridin-3-yl)-4-methylpyrimidin-5-yl)-3-(3-(5-methyl-1,3,4-oxadiazol-2-yl)-5-(trifluoromethyl)phenyl)urea], the IC50 is reported as less than 0.1 µM.
For CCOc1cc(-c2ccc(NC(=O)Nc3ccc(CC(C)(C)C#N)c(C(F)(F)F)c3)c(F)c2)c[nH]c1=O [Example 81], the IC50 was less than 0.1 µM.
For CCOc1cc(-c2nc(C)c(NC(=O)Nc3ccc(CN4CCN(CC)CC4)c(C(F)(F)F)c3)c(C)n2)c[nH]c1=O [Example 33, 1-(2-(5-Ethoxy-6-oxo-1,6-dihydropyridin-3-yl)-4,6-dimethylpyrimidin-5-yl)-3-(4-((4-ethylpiperazin-1-yl)methyl)-3-(trifluoromethyl)phenyl)urea], the IC50 was less than 0.1 µM.
In the case of CCOc1cc(-c2ccc(NC(=O)Nc3cnc(OC(C)C)c(C(F)(F)F)c3)c(F)c2)c[nH]c1=O [Example 92], the IC50 is reported as less than 0.1 µM.
With CCOc1cc(-c2ccc(NC(=O)Nc3ccc(OC4(C)COC4)c(C(F)(F)F)c3)c(F)c2)c[nH]c1=O [Example 130] the IC50 was less than 0.1 µM.
With CCOc1cc(Oc2ccc(NC(=O)Nc3ccc(CN4CCN(CC)CC4)c(C(F)(F)F)c3)cc2)c[nH]c1=O [Example 31, 1-(4-((5-Ethoxy-6-oxo-1,6-dihydropyridin-3-yl)oxy)phenyl)-3-(4-((4-ethylpiperazin-1-yl)methyl)-3-(trifluoromethyl)phenyl)urea] the IC50 was less than 0.1 µM.

Test system: not listed separately
Experiment: Physical stability of the crystalline form on exposure to humidity
Assay type: physicochemical
Details: exposed to 75% RH for five days
Method: A suspension of 1-(2-(4-ethoxy-6-oxo-1,6-dihydropyridin-3-yl)-4-methylpyrimidin-5-yl)-3-(5-(1,1,1-trifluoro-2-methylpropan-2-yl)isoxazol-3-yl)urea (493.5 mg) in 12.5 mL of acetone was stirred overnight while cycling the temperature between 40° C. and 5° C. Seeds of Compound A free base anhydrate were added at 5° C. The solids were isolated by vacuum filtration and dried overnight in a vacuum oven at 40° C. to give the title compound as a crystalline solid.
In the case of CCOc1cc(=O)[nH]cc1-c1ncc(NC(=O)Nc2cc(C(C)(C)C(F)(F)F)on2)c(C)n1 [Compound A free base anhydrate, 1-(2-(4-Ethoxy-6-oxo-1,6-dihydropyridin-3-yl)-4-methylpyrimidin-5-yl)-3-(5-(1,1,1-trifluoro-2-methylpropan-2-yl)isoxazol-3-yl)urea], the physical stability is reported as “physically stable”.
